Test results as given in ChEMBL document CHEMBL3045628, “Quantitative structureactivity relationships studies for prediction of antimicrobial activity of synthesized disulfonamide derivatives” (2011).

Experiments:
Assay type in all cases: functional
Bacillus cereus = experiment: Antimicrobial activity against Bacillus cereus RSKK 863 after 24 hr by broth microdilution assay
Staphylococcus aureus = experiment: Antimicrobial activity against Staphylococcus aureus ATCC 25923 after 24 hr by broth microdilution assay
Escherichia coli = experiment: Antimicrobial activity against Escherichia coli ATCC 11230 after 24 hr by broth microdilution assay

| Compound | -logMIC (Bacillus cereus) | -logMIC (Staphylococcus aureus) | -logMIC (Escherichia coli) |
| --- | --- | --- | --- |
| Cc1cccc(S(=O)(=O)NCCNS(=O)(=O)c2cccc(C)c2)c1 | 3.48 | 3.522 | 3.58 |
| O=S(=O)(NCCCCCNS(=O)(=O)c1ccccc1)c1ccccc1 | 3.2 | 3.38 | 3.496 |
| O=S(=O)(NCCNS(=O)(=O)c1ccccc1)c1ccccc1 | 3.37 | 3.38 | 3.51 |
| Cc1ccc(S(=O)(=O)NCCCNS(=O)(=O)c2ccc(C)cc2)cc1 | 3.38 | 3.3 | 3.52 |
| Cc1ccc(S(=O)(=O)NCCNS(=O)(=O)c2ccc(C)cc2)cc1 | 3.4 | 3.4 | 3.53 |
| COc1ccccc1S(=O)(=O)NCCCNS(=O)(=O)c1ccccc1OC | 3.6 | 3.55 | 3.711 |
| O=S(=O)(NCCCNS(=O)(=O)c1ccccc1)c1ccccc1 | 3.36 | 3.285 | 3.49 |
| O=S(=O)(NCCCCNS(=O)(=O)c1ccccc1)c1ccccc1 | 3.358 | 3.24 | 3.48 |
| Cc1ccc(S(=O)(=O)NCCCCNS(=O)(=O)c2ccc(C)cc2)cc1 | 3.35 | 3.26 | 3.5 |
| Cc1ccccc1S(=O)(=O)NCCNS(=O)(=O)c1ccccc1C | 3.56 | 3.638 | 3.7 |
| Cc1ccccc1S(=O)(=O)NCCCNS(=O)(=O)c1ccccc1C | 3.542 | 3.6 | 3.68 |
| Cc1ccccc1S(=O)(=O)NCCCCNS(=O)(=O)c1ccccc1C | 3.505 | 3.54 | 3.64 |
| Cc1cccc(S(=O)(=O)NCCCNS(=O)(=O)c2cccc(C)c2)c1 | 3.44 | 3.48 | 3.57 |
| Cc1cccc(S(=O)(=O)NCCCCNS(=O)(=O)c2cccc(C)c2)c1 | 3.41 | 3.47 | 3.55 |
| COc1ccc(S(=O)(=O)NCCNS(=O)(=O)c2ccc(OC)cc2)cc1 | 3.46 | 3.49 | 3.56 |
| CS(=O)(=O)NCCNS(C)(=O)=O | 2.876 | 2.99 | 2.99 |
| CS(=O)(=O)NCCCNS(C)(=O)=O | 2.864 | 2.925 | 2.97 |

| Compound | -logMIC (Bacillus cereus) | -logMIC (Staphylococcus aureus) | -logMIC (Escherichia coli) |
| --- | --- | --- | --- |
| CS(=O)(=O)NCCCCNS(C)(=O)=O | 2.84 | 2.9 | 2.95 |
| CS(=O)(=O)NCCCCCNS(C)(=O)=O | 2.828 | 2.88 | 2.94 |
| CCS(=O)(=O)NCCNS(=O)(=O)CC | 2.66 | 2.66 | 2.72 |
| CCS(=O)(=O)NCCCNS(=O)(=O)CC | 2.642 | 2.642 | 2.7 |
| CCS(=O)(=O)NCCCCNS(=O)(=O)CC | 2.638 | 2.637 | 2.69 |
| CCS(=O)(=O)NCCCCCNS(=O)(=O)CC | 2.58 | 2.61 | 2.67 |
| COc1ccc(S(=O)(=O)NCCCNS(=O)(=O)c2ccc(OC)cc2)cc1 | 3.42 | 3.46 | 3.511 |
| CCCS(=O)(=O)NCCCCCNS(=O)(=O)CCC | 2.78 | 2.96 | 3.191 |
| COc1cccc(S(=O)(=O)NCCNS(=O)(=O)c2cccc(OC)c2)c1 | 3.58 | 3.52 | 3.6 |
| COc1cccc(S(=O)(=O)NCCCNS(=O)(=O)c2cccc(OC)c2)c1 | 3.55 | 3.5 | 3.59 |
| COc1ccccc1S(=O)(=O)NCCNS(=O)(=O)c1ccccc1OC | 3.66 | 3.58 | 3.72 |
| CCCS(=O)(=O)NCCCNS(=O)(=O)CCC | 3.058 | 3.009 | 3.104 |
| CCCS(=O)(=O)NCCCCNS(=O)(=O)CCC | 2.95 | 2.933 | 3.119 |
| CCCCS(=O)(=O)NCCNS(=O)(=O)CCCC | 2.83 | 2.974 | 3.12 |
| CCCCS(=O)(=O)NCCCNS(=O)(=O)CCCC | 2.917 | 2.861 | 3.116 |
| CCCCS(=O)(=O)NCCCCNS(=O)(=O)CCCC | 2.85 | 2.829 | 2.857 |
| CCCS(=O)(=O)NCCNS(=O)(=O)CCC | 3.179 | 3.003 | 3.258 |
